Assay results as given in US10039747B2, “Tetrahydrocyclopentapyrrole derivatives and a method for preparing the same” (Daewoong Pharmaceutical Co., Ltd., priority 2013, dated 2018).
Counter-ions that a name gives are not always drawn.

Molecular target: T1, H+/K+-ATPase (Sus scrofa, UniProt P19156)
T1 construct: reaction buffer solution (60 mmol/l Tris-HCl buffer solution, pH 7.4) containing hog gastric vesicle; from tissue; host or cells: hog stomach (gastric vesicles, by centrifugation after Rabon et al. 1988)
T1 sequence (P19156 2-1034 limits assumed): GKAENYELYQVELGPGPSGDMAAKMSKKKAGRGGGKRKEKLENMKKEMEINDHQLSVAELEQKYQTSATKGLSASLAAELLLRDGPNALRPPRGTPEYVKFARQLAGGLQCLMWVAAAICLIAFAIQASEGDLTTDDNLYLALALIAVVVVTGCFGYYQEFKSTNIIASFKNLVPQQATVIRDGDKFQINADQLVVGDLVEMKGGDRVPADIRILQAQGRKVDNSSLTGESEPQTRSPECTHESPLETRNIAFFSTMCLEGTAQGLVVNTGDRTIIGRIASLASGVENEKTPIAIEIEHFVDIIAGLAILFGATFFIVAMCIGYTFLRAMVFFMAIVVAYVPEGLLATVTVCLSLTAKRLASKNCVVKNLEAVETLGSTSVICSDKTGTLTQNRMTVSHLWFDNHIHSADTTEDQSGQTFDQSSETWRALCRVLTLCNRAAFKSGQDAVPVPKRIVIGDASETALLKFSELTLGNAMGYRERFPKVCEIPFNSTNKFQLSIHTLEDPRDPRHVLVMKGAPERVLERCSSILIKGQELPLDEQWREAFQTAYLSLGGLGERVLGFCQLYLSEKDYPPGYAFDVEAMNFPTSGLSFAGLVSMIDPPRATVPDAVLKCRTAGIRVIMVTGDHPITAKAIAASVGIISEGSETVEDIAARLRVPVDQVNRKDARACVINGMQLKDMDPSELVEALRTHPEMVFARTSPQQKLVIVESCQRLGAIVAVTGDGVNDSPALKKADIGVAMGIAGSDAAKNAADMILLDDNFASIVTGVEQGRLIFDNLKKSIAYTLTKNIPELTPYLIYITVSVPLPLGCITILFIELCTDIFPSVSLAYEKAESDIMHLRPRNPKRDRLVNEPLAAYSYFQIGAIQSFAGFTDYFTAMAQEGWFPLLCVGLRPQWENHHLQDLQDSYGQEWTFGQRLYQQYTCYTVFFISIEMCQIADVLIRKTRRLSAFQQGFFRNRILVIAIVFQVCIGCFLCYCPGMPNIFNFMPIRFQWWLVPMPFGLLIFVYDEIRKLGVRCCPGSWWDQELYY
T1 sequence (P18434 whole entry partner): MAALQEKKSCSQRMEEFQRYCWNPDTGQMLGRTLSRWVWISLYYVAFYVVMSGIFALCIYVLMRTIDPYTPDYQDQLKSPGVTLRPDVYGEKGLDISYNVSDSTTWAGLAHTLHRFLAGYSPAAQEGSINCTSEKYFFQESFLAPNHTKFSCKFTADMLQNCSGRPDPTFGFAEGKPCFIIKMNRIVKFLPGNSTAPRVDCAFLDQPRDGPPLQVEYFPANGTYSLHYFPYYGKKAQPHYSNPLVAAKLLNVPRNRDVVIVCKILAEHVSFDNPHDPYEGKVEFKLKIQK
Assay: Inhibition of proton pump (H+/K+-ATPase) activity in hog gastric vesicles
Type: biochemical
Details: K+ specific H+/K+-ATPase activity, pH 7.4, 37° C. for 40 minutes, malachite green
Description: 1) Preparation of Gastric Vesicles
Gastric vesicles were prepared from hog stomach by centrifugation (Edd C. Rabon et al., Preparation of Gastric H^+,K^+-ATPase, Methods in enzymology, vol. 157 Academic Press Inc., (1988), pp. 649-654). The protein contents of the prepared gastric vesicles were quantified with a Bicinchoninic Acid (BCA) kit.
2) Measurement of Effect of Inhibiting Proton Pump (H^+/K^+-ATPase) Activity
The effect of inhibiting proton pump activity by the compound of the present invention was measured in a 96-well plate. In this experiment, K^+ specific H^+/K^+-ATPase activity was calculated based on the difference between H^+/K^+-ATPase activity in the presence of K^+ ions and H^+/K^+-ATPase activity in the absence of K^+ ions. In the 96-well plate, to negative and positive control groups, 0.5% dimethylsulfoxide (DMSO) in buffer was added, and to the test groups, the compound of the present invention was added. All the analyses were conducted at room temperature with the reaction volume of 100 μl. To a reaction buffer solution (60 mmol/l Tris-HCl buffer solution, pH 7.4) containing hog gastric vesicle, DMSO and each concentration of compound were added, and then, 10 μl of a 10 mmol/l adenosine triphosphate tris buffer solution (60 mmol/l Tris-HCl buffer solution, pH 7.4) was added to initiate an enzyme reaction. The enzyme reaction was conducted at 37° C. for 40 minutes, 50 μl of a malachite green solution (0.12% malachite green solution, 5.8% ammonium molybdate and 11% tween 20 were mixed at a ratio of 100:67:2 in 6.2 N sulfuric acid) was added to stop the reaction, and 50 μl of 15.1% sodium citrate was added. During the reaction, the amount of monophosphate (Pi) was measured at 570 nm using micro plate reader (FLUOstar Omega, BMG Company). Inhibition rate (%) was measured from the activity values of the control groups and the activity values of various concentrations of the test compound, and IC50 of the test compound was calculated from each % inhibition value of the compound using Logistic 4-parameter function of Sigmaplot 8.0 program.

SMILES | IC50
CNC1CCc2c1cn(S(=O)(=O)c1cc(Cl)c(Cl)cc1Cl)c2-c1ccc(C)cc1F (stereo not shown) [Example 82, 1-(2-fluoro-4-methylphenyl)-N-methyl-2-((2,4,5-trichlorophenyl)sulfonyl)-2,4,5,6-tetrahydrocyclopenta[c]pyrrol-4-amine] | 660 nM
CNC1CCc2c1cn(S(=O)(=O)c1cccc(Cl)c1)c2-c1cc(Cl)cc(Cl)c1 (stereo not shown) [Example 25, 2-((3-chlorophenyl)sulfonyl)-1-(3,5-dichlorophenyl)-N-methyl-2,4,5,6-tetrahydrocyclopenta[c]pyrrol-4-amine] | 790 nM
CNC1CCc2c1cn(S(=O)(=O)c1cccc(Cl)c1)c2-c1ccccc1Cl (stereo not shown) [Example 5, 1-(2-chlorophenyl)-2-((3-chlorophenyl)sulfonyl)-N-methyl-2,4,5,6-tetrahydrocyclopenta[c]pyrrol-4-amine] | 740 nM
CNC1CCc2c1cn(S(=O)(=O)c1ccccc1)c2-c1ccccc1F (stereo not shown) [Example 43, 1-(2-fluorophenyl)-N-methyl-2-(phenylsulfonyl)-2,4,5,6-tetrahydrocyclopenta[c]pyrrol-4-amine] | 430 nM
CNC1CCc2c1cn(S(=O)(=O)c1cnc3c(c1)c(C)nn3C)c2-c1ccccc1F (stereo not shown) [Example 102, 2-((1,3-dimethyl-1H-pyrazolo[3,4-b]pyridin-5-yl)sulfonyl)-1-(2-fluorophenyl)-N-methyl-2,4,5,6-tetrahydrocyclopenta[c]pyrrol-4-amine] | 10000 nM
CNC1CCc2c1cn(S(=O)(=O)c1cccc(Cl)c1)c2-c1ccccc1C1CC=CC1 (stereo not shown) [Example 6, 2-((3-chlorophenyl)sulfonyl)-1-(2-(cyclopent-3-en-1-yl)phenyl)-N-methyl-2,4,5,6-tetrahydrocyclopenta[c]pyrrol-4-amine] | 1320 nM
CNC1CCc2c1cn(S(=O)(=O)c1cccc(Cl)c1)c2-c1cscc1C (stereo not shown) [Example 34, 2-((3-chlorophenyl)sulfonyl)-N-methyl-1-(4-methylthiophen-3-yl)-2,4,5,6-tetrahydrocyclopenta[c]pyrrol-4-amine] | 690 nM
CNC1CCc2c1cn(S(=O)(=O)c1cccc(Cl)c1)c2-c1ccc(F)cc1F (stereo not shown) [Example 19, 2-((3-chlorophenyl)sulfonyl)-1-(2,4-difluorophenyl)-N-methyl-2,4,5,6-tetrahydrocyclopenta[c]pyrrol-4-amine] | 280 nM
CNC1CCc2c1cn(S(=O)(=O)c1cc(Cl)cc(Cl)c1)c2-c1ccccc1F (stereo not shown) [Example 77, 2-((3,5-dichlorophenyl)sulfonyl)-1-(2-fluorophenyl)-N-methyl-2,4,5,6-tetrahydrocyclopenta[c]pyrrol-4-amine] | 410 nM
CNC1CCc2c1cn(S(=O)(=O)c1cccc(Cl)c1)c2-c1ccc(N2CCCC2)nc1 (stereo not shown) [Example 40] | 7690 nM
CNC1CCc2c1cn(S(=O)(=O)c1cccnc1)c2-c1cc(Cl)ccc1Cl (stereo not shown) [Example 92, 1-(2,5-dichlorophenyl)-N-methyl-2-(pyridin-3-ylsulfonyl)-2,4,5,6-tetrahydrocyclopenta[c]pyrrol-4-amine] | 350 nM
CNC1CCc2c1cn(S(=O)(=O)c1cccc(N(C)C)c1)c2-c1ccccc1F (stereo not shown) [Example 56, 2-((3-(dimethylamino)phenyl)sulfonyl)-1-(2-fluorophenyl)-N-methyl-2,4,5,6-tetrahydrocyclopenta[c]pyrrol-4-amine] | 1720 nM
CNC1CCc2c1cn(S(=O)(=O)c1cccc(Cl)c1)c2-c1ccc2occc2c1 (stereo not shown) [Example 29, 1-(benzofuran-5-yl)-2-((3-chlorophenyl)sulfonyl)-N-methyl-2,4,5,6-tetrahydrocyclopenta[c]pyrrol-4-amine] | 1280 nM
CNC1CCc2c1cn(S(=O)(=O)c1ccc(-c3ccccc3)cc1)c2-c1ccccc1F (stereo not shown) [Example 62, 2-([1,1′-biphenyl]-4-ylsulfonyl)-1-(2-fluorophenyl)-N-methyl-2,4,5,6-tetrahydrocyclopenta[c]pyrrol-4-amine] | 8750 nM
CNC1CCc2c1cn(S(=O)(=O)c1nccn1C)c2-c1ccccc1F (stereo not shown) [Example 101, 1-(2-fluorophenyl)-N-methyl-2-((1-methyl-1H-imidazol-2-yl)sulfonyl)-2,4,5,6-tetrahydrocyclopenta[c]pyrrol-4-amine] | 18700 nM
CNC1CCc2c1cn(S(=O)(=O)c1cccnc1)c2-c1cc(Cl)cc(C)c1F (stereo not shown) [Example 93, 1-(5-chloro-2-fluoro-3-methylphenyl)-N-methyl-2-(pyridin-3-ylsulfonyl)-2,4,5,6-tetrahydrocyclopenta[c]pyrrol-4-amine] | 340 nM
CNC1CCc2c1cn(S(=O)(=O)c1ccc(OC(F)(F)F)cc1Cl)c2-c1ccccc1F (stereo not shown) [Example 68, 2-((2-chloro-4-(trifluoromethoxy)phenyl)sulfonyl)-1-(2-fluorophenyl)-N-methyl-2,4,5,6-tetrahydrocyclopenta[c]pyrrol-4-amine] | 840 nM
CNC1NCc2c1cn(S(=O)(=O)c1cccc(Cl)c1)c2-c1ccccc1F (stereo not shown) [Example 115, 5-((3-chlorophenyl)sulfonyl)-4-(2-fluorophenyl)-N-methyl-1,2,3,5-tetrahydropyrrolo[3,4-c]pyrrol-1-amine hydrochloride] | 40000 nM
CNC1CCc2c1cn(S(=O)(=O)c1cccc(Cl)c1)c2-c1ccc2c(c1)OCO2 (stereo not shown) [Example 28, 1-(benzo[d][1,3]dioxol-5-yl)-2-((3-chlorophenyl)sulfonyl)-N-methyl-2,4,5,6-tetrahydrocyclopenta[c]pyrrol-4-amine] | 590 nM
CNC1CCc2c1cn(S(=O)(=O)c1cccc(Cl)c1)c2-c1ccc(C(F)(F)F)nc1 (stereo not shown) [Example 39] | 2510 nM
CNC1CCc2c1cn(S(=O)(=O)c1cccs1)c2-c1ccccc1F (stereo not shown) [Example 87, 1-(2-fluorophenyl)-N-methyl-2-(thiophen-2-ylsulfonyl)-2,4,5,6-tetrahydrocyclopenta[c]pyrrol-4-amine] | 1440 nM

The remaining lines, values ahead:

IC50 | SMILES
40000 nM | CNC1CCCc2c1cn(S(=O)(=O)c1cccc(Cl)c1)c2-c1cncnc1 (stereo not shown) [Example 129, 2-((3-chlorophenyl)sulfonyl)-N-methyl-1-(pyrimidin-5-yl)-4,5,6,7-tetrahydro-2H-isoindole-4-amine]
2000 nM | CNC1CCCc2c1cn(S(=O)(=O)c1cccnc1)c2-c1ccccc1Cl (stereo not shown) [Example 133, 1-(2-chlorophenyl)-N-methyl-2-(pyridin-3-ylsulfonyl)-4,5,6,7-tetrahydro-2H-isoindole-4-amine]
5000 nM | CNC1CCCc2c1cn(S(=O)(=O)c1cccnc1)c2-c1ccc(F)cc1F (stereo not shown) [Example 135, 1-(2,4-difluorophenyl)-N-methyl-2-(pyridin-3-ylsulfonyl)-4,5,6,7-tetrahydro-2H-isoindole-4-amine]
2440 nM | Cc1oc(=O)oc1CN(C)C1CCc2c1cn(S(=O)(=O)c1cccc(F)c1)c2-c1ccc(F)cc1F (stereo not shown) [Example 117, 4-(((1-(2,4-difluorophenyl)-2-((3-fluorophenyl)sulfonyl)-2,4,5,6-tetrahydrocyclopenta[c]pyrrol-4-yl)(methyl)amino)methyl)-5-methyl-1,3-dioxol-2-one]
50000 nM | CNC1CCCc2c1cn(S(=O)(=O)c1cccc(Cl)c1)c2-c1ccncc1 (stereo not shown) [Example 128, 2-((3-chlorophenyl)sulfonyl)-N-methyl-1-(pyridin-4-yl)-4,5,6,7-tetrahydro-2H-isoindole-4-amine]
4530 nM | CNC1CCCc2c1cn(S(=O)(=O)c1cccc(Cl)c1)c2-c1ccc(-c2ccccc2)cc1 (stereo not shown) [Example 127, 1-([1,1′-biphenyl]-4-yl)-2-((3-chlorophenyl)sulfonyl)-N-methyl-4,5,6,7-tetrahydro-2H-isoindole-4-amine]
19700 nM | CNC1CCCc2c1cn(S(=O)(=O)c1cccnc1)c2-c1ccc(-c2ccccc2)cc1 (stereo not shown) [Example 134, 1-([1,1′-biphenyl]-4-yl)-N-methyl-2-(pyridin-3-ylsulfonyl)-4,5,6,7-tetrahydro-2H-isoindole-4-amine]
1500 nM | CNC1CCCc2c1cn(S(=O)(=O)c1cccc(N(C)C)c1)c2-c1ccccc1F (stereo not shown) [Example 130, 2-((3-(dimethylamino)phenyl)sulfonyl)-1-(2-fluorophenyl)-N-methyl-4,5,6,7-tetrahydro-2H-isoindole-4-amine]
10600 nM | CN(C)C1CCCc2c1cn(S(=O)(=O)c1cccc(OC(F)(F)F)c1)c2-c1ccccc1F (stereo not shown) [Example 141, 1-(2-fluorophenyl)-N,N-dimethyl-2-((3-(trifluoromethoxy)phenyl)sulfonyl)-4,5,6,7-tetrahydro-2H-isoindole-4-amine]
8000 nM | CN(C)C1CCCc2c1cn(S(=O)(=O)c1cccc(OC(F)F)c1)c2-c1ccccc1F (stereo not shown) [Example 142, 2-((3-(difluoromethoxy)phenyl)sulfonyl)-1-(2-fluorophenyl)-N,N-dimethyl-4,5,6,7-tetrahydro-2H-isoindole-4-amine]
